# Results from patent US10736883B2, “Triazole furan compounds as agonists of the APJ receptor” (AMGEN INC., priority 2016, dated 2020).
# Biological target: APJ receptor (Homo sapiens (Human), UniProt P35414)
# Test: [35S]GTPγS binding assay on membranes from CHO cells stably expressing human APJ receptor
# Type: biochemical
# Details: membranes of CHO cells stably expressing human APJ receptor, means of several independent experiments, read-out: Activity hAPJ SPA EC50 IP
# Summary of the method: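 EC50 values were obtained by non-linear regression of [35S]GTPγS (0.2 nM) binding after 90 min at RT, with nonspecific binding defined by 100 μM GTPγS. Reactions used human APJ–expressing CHO cell membranes on WGA PS beads in HEPES pH 7.5 buffer with 5 mM MgCl2, 200 mM NaCl, 3 μM GDP and 0.1% BSA.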
# Chain of APJ receptor (P35414 whole entry): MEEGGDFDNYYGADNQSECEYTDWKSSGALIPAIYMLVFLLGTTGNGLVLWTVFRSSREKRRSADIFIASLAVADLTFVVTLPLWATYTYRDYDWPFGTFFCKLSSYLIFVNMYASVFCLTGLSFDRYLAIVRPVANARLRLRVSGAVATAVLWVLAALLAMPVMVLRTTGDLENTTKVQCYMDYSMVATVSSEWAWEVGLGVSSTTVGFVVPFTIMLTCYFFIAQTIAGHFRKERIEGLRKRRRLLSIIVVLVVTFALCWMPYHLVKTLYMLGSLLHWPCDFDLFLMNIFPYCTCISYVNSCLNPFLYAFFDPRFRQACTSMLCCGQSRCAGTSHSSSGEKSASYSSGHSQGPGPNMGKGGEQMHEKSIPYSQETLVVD
row,EC50 [nM],Molecule
1,610,"Cc1ccc(-c2nnc(NS(=O)(=O)[C@@H](C)Cc3ncc(F)cn3)n2C2CC2)o1 (racemic) [Example 319.0, (2R)—N-(4-Cyclopropyl-5-(5-methyl-2-furanyl)-4H-1,2,4-triazol-3-yl)-1-(5-fluoro-2-pyrimidinyl)-2-propanesulfonamide and (2S)—N-(4-cyclopropyl-5-(5-methyl-2-furanyl)-4H-1,2,4-triazol-3-yl)-1-(5-fluoro-2-pyrimidinyl)-2-propanesulfonamide]"
2,0.36,"COc1cccc(OC)c1-n1c(NS(=O)(=O)[C@H](C)Cc2ccc(Br)cn2)nnc1-c1ccco1 (single isomer, unassigned) [Example 23.0, (2R)-1-(5-bromo-2-pyridinyl)-N-(4-(2,6-dimethoxyphenyl)-5-(2-furanyl)-4H-1,2,4-triazol-3-yl)-2-propanesulfonamide or (2S)-1-(5-bromo-2-pyridinyl)-N-(4-(2,6-dimethoxyphenyl)-5-(2-furanyl)-4H-1,2,4-triazol-3-yl)-2-propanesulfonamide]"
3,0.3,"COc1cccc(OC)c1-n1c(NS(=O)(=O)[C@H]2C[C@@H](O)CN(c3ncc(Cl)cn3)C2)nnc1-c1ccc(C)o1 (racemic) [Example 328.0, (3S,5R)-1-(5-Chloro-2-pyrimidinyl)-N-(4-(2,6-dimethoxyphenyl)-5-(5-methyl-2-furanyl)-4H-1,2,4-triazol-3-yl)-5-hydroxy-3-piperidinesulfonamide and (3R,5S)-1-(5-chloro-2-pyrimidinyl)-N-(4-(2,6-dimethoxyphenyl)-5-(5-methyl-2-furanyl)-4H-1,2,4-triazol-3-yl)-5-hydroxy-3-piperidinesulfonamide]"
4,0.98,"COc1cccc(OC)c1-n1c(NS(=O)(=O)[C@@H](C)[C@@H](O)c2ccc(F)cn2)nnc1-c1ccc(C)o1 (single isomer, unassigned) [Example 79.0]"
5,0.45,"COc1cccc(OC)c1-n1c(NS(=O)(=O)[C@H]2C[C@@H](O)CN(c3cc(C#N)ccn3)C2)nnc1-c1ccc(C)o1 (racemic) [Example 333.0, (3S,5R)-1-(4-Cyanopyridin-2-yl)-N-(4-(2,6-dimethoxyphenyl)-5-(5-methylfuran-2-yl)-4H-1,2,4-triazol-3-yl)-5-hydroxypiperidine-3-sulfonamide and (3R,5S)-1-(4-cyanopyridin-2-yl)-N-(4-(2,6-dimethoxyphenyl)-5-(5-methylfuran-2-yl)-4H-1,2,4-triazol-3-yl)-5-hydroxypiperidine-3-sulfonamide]"
6,0.77,"COC[C@@H](Cc1ncc(F)cn1)S(=O)(=O)Nc1nnc(-c2ccc(C)o2)n1-c1c(OC)cccc1OC (single isomer, unassigned) [Example 78.0, (2R)—N-(4-(2,6-Dimethoxyphenyl)-5-(5-methyl-2-furanyl)-4H-1,2,4-triazol-3-yl)-1-(5-fluoro-2-pyrimidinyl)-3-methoxy-2-propanesulfonamide or (2S)—N-(4-(2,6-dimethoxyphenyl)-5-(5-methyl-2-furanyl)-4H-1,2,4-triazol-3-yl)-1-(5-fluoro-2-pyrimidinyl)-3-methoxy-2-propanesulfonamide]"
7,12,"COc1cccc(OC)c1-n1c(NS(=O)(=O)[C@H](C)Cc2ccc(C)nn2)nnc1-c1ccco1 (single isomer, unassigned) [Example 42.0, (2R)—N-(4-(2,6-dimethoxyphenyl)-5-(2-furanyl)-4H-1,2,4-triazol-3-yl)-1-(6-methyl-3-pyridazinyl)-2-propanesulfonamide or (2S)—N-(4-(2,6-dimethoxyphenyl)-5-(2-furanyl)-4H-1,2,4-triazol-3-yl)-1-(6-methyl-3-pyridazinyl)-2-propanesulfonamide]"
8,0.23,"(1R,2S)-1-(5-chloro-2-pyrimidinyl)-N-(4-(2,6-dimethoxyphenyl)-5-(5-methyl-2-furanyl)-4H-1,2,4-triazol-3-yl)-1-hydroxy-2-propanesulfonamide or (1S,2R)-1-(5-chloro-2-pyrimidinyl)-N-(4-(2,6-dimethoxyphenyl)-5-(5-methyl-2-furanyl)-4H-1,2,4-triazol-3-yl)-1-hydroxy-2-propanesulfonamide [Example 216.0]"
9,0.55,COc1cccc(OC)c1-n1c(NS(=O)(=O)[C@@H](C)[C@H](O)c2ccc(C#N)cc2F)nnc1-c1ccc(C)o1 [Example 75.0]
10,0.56,"COc1cccc(OC)c1-n1c(NS(=O)(=O)[C@H](C)[C@@H](O)c2ncn3ccccc23)nnc1-c1ccc(C)o1 (single isomer, unassigned) [Example 270.0, (1R,2S)—N-(4-(2,6-Dimethoxyphenyl)-5-(5-methyl-2-furanyl)-4H-1,2,4-triazol-3-yl)-1-hydroxy-1-imidazo[1,5-a]pyridin-1-yl-2-propanesulfonamide or (1S,2R)—N-(4-(2,6-dimethoxyphenyl)-5-(5-methyl-2-furanyl)-4H-1,2,4-triazol-3-yl)-1-hydroxy-1-imidazo[1,5-a]pyridin-1-yl-2-propanesulfonamide]"
11,83,"COc1ccccc1-n1c(NS(=O)(=O)[C@@H](C)Cc2ncc(F)cn2)nnc1-c1ccco1.COc1ccccc1-n1c(NS(=O)(=O)[C@H](C)Cc2ncc(F)cn2)nnc1-c1ccco1 (mixture of isomers) [Example 310.0, (2S)-1-(5-Fluoro-2-pyrimidinyl)-N-(5-(2-furanyl)-4-(2-methoxyphenyl)-4H-1,2,4-triazol-3-yl)-2-propanesulfonamide and (2R)-1-(5-fluoro-2-pyrimidinyl)-N-(5-(2-furanyl)-4-(2-methoxyphenyl)-4H-1,2,4-triazol-3-yl)-2-propanesulfonamide]"
12,0.48,"COc1cccc(OC)c1-n1c(NS(=O)(=O)[C@H](C)Cc2ncc(F)cc2NC(C)=O)nnc1-c1ccco1 (racemic) [Example 28.0, N-(2-((2R)-2-((4-(2,6-dimethoxyphenyl)-5-(2-furanyl)-4H-1,2,4-triazol-3-yl)sulfamoyl)propyl)-5-fluoro-3-pyridinyl)acetamide and N-(2-((2S)-2-((4-(2,6-dimethoxyphenyl)-5-(2-furanyl)-4H-1,2,4-triazol-3-yl)sulfamoyl)propyl)-5-fluoro-3-pyridinyl)acetamide]"

# Second part, the molecule before the results:
row,Molecule,EC50 [nM]
1,"COc1cccc(OC)c1-n1c(NS(=O)(=O)CCc2ncc(Cl)cc2CN2CCOCC2)nnc1-c1ccco1 [Example 219.0, 2-(5-Chloro-3-(4-morpholinylmethyl)-2-pyridinyl)-N-(4-(2,6-dimethoxyphenyl)-5-(2-furanyl)-4H-1,2,4-triazol-3-yl)ethanesulfonamide]",0.26
2,"COC[C@H](C)n1c(NS(=O)(=O)[C@@H](C)[C@H](C)c2ncc(Cl)cn2)nnc1-c1ccc(C)o1 [Example 398.0, (2S,3R)-3-(5-chloro-2-pyrimidinyl)-N-(4-((2S)-1-methoxy-2-propanyl)-5-(5-methyl-2-furanyl)-4H-1,2,4-triazol-3-yl)-2-butanesulfonamide]",10
3,"COc1cccc(OC)c1-n1c(NS(=O)(=O)CCc2ncc(Cl)cc2-c2cccnc2)nnc1-c1ccco1 [Example 221.0, 2-(5-Chloro-3,3′-bipyridin-2-yl)-N-(4-(2,6-dimethoxyphenyl)-5-(2-furanyl)-4H-1,2,4-triazol-3-yl)ethanesulfonamide]",0.3
4,"COc1cccc(OC)c1-n1c(NS(=O)(=O)[C@@H](C)[C@H](O)c2cccc3ccnn23)nnc1-c1ccc(C)o1 (single isomer, unassigned) [Example 267.0, (1R,2S)—N-(4-(2,6-Dimethoxyphenyl)-5-(5-methyl-2-furanyl)-4H-1,2,4-triazol-3-yl)-1-hydroxy-1-pyrazolo[1,5-a]pyridin-7-yl-2-propanesulfonamide or (1S,2R)—N-(4-(2,6-dimethoxyphenyl)-5-(5-methyl-2-furanyl)-4H-1,2,4-triazol-3-yl)-1-hydroxy-1-pyrazolo[1,5-a]pyridin-7-yl-2-propanesulfonamide]",0.43
5,"COc1ncnc(OC)c1-n1c(NS(=O)(=O)[C@@H](C)[C@H](C)c2ncc(F)cn2)nnc1-c1ccc(Br)o1 [Example 394.0, (2S,3R)-N-(5-(5-bromo-2-furanyl)-4-(4,6-dimethoxy-5-pyrimidinyl)-4H-1,2,4-triazol-3-yl)-3-(5-fluoro-2-pyrimidinyl)-2-butanesulfonamide]",0.31
6,"CCO[C@H](c1ncc(C)cn1)[C@@H](C)S(=O)(=O)Nc1nnc(-c2ccc(C)o2)n1-c1c(OC)cccc1OC (single isomer, unassigned) [Example 130.0, (1R,2R)-N-(4-(2,6-dimethoxyphenyl)-5-(5-methylfuran-2-yl)-4H-1,2,4-triazol-3-yl)-1-ethoxy-1-(5-methylpyrimidin-2-yl)propane-2-sulfonamide or (1S,2S)-N-(4-(2,6-dimethoxyphenyl)-5-(5-methylfuran-2-yl)-4H-1,2,4-triazol-3-yl)-1-ethoxy-1-(5-methylpyrimidin-2-yl)propane-2-sulfonamide]",3.5
7,COc1cccc(OC)c1-n1c(NS(=O)(=O)[C@H](CCO)Cc2ncc(C)cn2)nnc1-c1ccc(C)o1 [Example 80.0],1.1
8,"COc1cccc(OC)c1-n1c(NS(=O)(=O)[C@@H](C)Cc2ncc(Cl)cc2C#N)nnc1-c1ccco1 (mixture of isomers) [Example 18.0, (2S)-1-(5-chloro-3-cyano-2-pyridinyl)-N-(4-(2,6-dimethoxyphenyl)-5-(2-furanyl)-4H-1,2,4-triazol-3-yl)-2-propanesulfonamide and (2R)-1-(5-chloro-3-cyano-2-pyridinyl)-N-(4-(2,6-dimethoxyphenyl)-5-(2-furanyl)-4H-1,2,4-triazol-3-yl)-2-propanesulfonamide]",0.28
9,"COc1cccc(OC)c1-n1c(NS(=O)(=O)CCc2ncc(F)cn2)nnc1-c1ccc(C)o1 [Example 125.0, N-(4-(2,6-Dimethoxyphenyl)-5-(5-methylfuran-2-yl)-4H-1,2,4-triazol-3-yl)-2-(5-fluoropyrimidin-2-yl)ethanesulfonamide]",0.34
